Entries after “also recorded” stand apart in the source; their conditions may differ.
Columns and labels:
CD8+ T cells [1] = experiment: Ki67 expression on CD8+ T cells, human PBMC, flow cytometry; assay type: cell-based
From the text: (§1) Exemplary IL-2 variant Fc fusion protein P-0573 was further characterized for induction of Ki-67 expression by flow cytometry.

CD4+ T cells = experiment: Ki67 expression on CD4+ T cells, human PBMC, flow cytometry; assay type: cell-based
From the text: as §1

NK cells [2] = experiment: Ki67 expression on NK cells, human PBMC, flow cytometry; assay type: cell-based
From the text: as §1

[3] = tested on: CD4+ Tconv cells, CD8 T cells and NK cells; experiment: Effector T cell and NK cell proliferation and expansion in mice after a single subcutaneous injection (Example 9); assay type: in vivo, mouse; settings: 0.3 mg/kg single s.c., C57/BL6 mice
Procedure: (§2) IL-2 variant Fc fusion proteins were administered to mice and their ability to preferentially proliferate and expand regulatory T cells (CD4+CD25+FoxP3+ T cells) over effector T cells and NK cells were determined in vivo.
(§3) Female C57/BL6 mice (7-week old) were received from Charles River Laboratory and acclimated in house for at least 7 days before the study. Vehicle (PBS), 0.3 mg/kg of each test compounds, or IL-2 benchmark compounds were subcutaneously administered to mice on day 0. Peripheral blood samples were collected into heparin-treated tubes on days 3, 5 and 7 post-treatment. Each group contained 6 mice and baseline blood was collected 2 days prior to the treatment (day −2). After red blood cell lysis, total viable mononuclear blood cells were counted by trypan blue dead cell exclusion method and proceeded to intracellular staining for immune cell phenotype and Ki67 proliferation markers using flow cytometric analysis. Cells were stained separately with two panels of antibodies as listed: 1) anti-mouse Foxp3-FITC, Ki67-PE, anti-mouse CD25-APC and anti-mouse CD4-Percpcy5.5 (1:50 dilution) for CD4+T-regulatory cells (Treg); 2) anti-mouse CD3-FITC, Ki67-PE, anti-mouse CD335-APC and anti-mouse CD8-Percpcy5.5 (1:50 dilution) for CD8+T and NK cells.

CD8+ T cells [4] = experiment: CD8+ T cell proliferation, CFSE dilution, human PBMC; assay type: cell-based; settings: 5 or 7 days incubation
Procedure: (§4) Further, P-0511 and P-0512 were tested for their ability to stimulate NK and CD8+ T cells proliferation in comparison with the wild type and benchmark molecules. Intracellular fluorescent label carboxyfluorescein diacetate succinimidyl ester (CFSE) method was utilized. Briefly, human PBMC (1×10^5 cells/well) were labeled with CFSE, plated onto 96-well plates, and incubated with increasing concentrations of different IL-2 compounds. Cells were then harvested after 5 or 7 days of incubation and stained with either anti-CD56-APC antibody for NK cells or anti-CD8-APC antibody for CD8+ T cells; and analyzed by flow cytometry. Data are expressed as a percent of divided cells and illustrated in FIG. 10A for CD8+ T cell proliferation and FIG. 10B for NK cell proliferation.

[5] = tested on: CD4+/Foxp3+/CD25+ Treg, CD4+/Foxp3-/CD25+ Teff and CD4+/Foxp3-/CD25- naive T cells; experiment: STAT5 phosphorylation in three CD4+ T cell subsets (Treg, CD4 effector, CD4 naive), human PBMC; assay type: cell-based
From the text: In addition to being assessed for their ability to differentially stimulate Stat5 phosphorylation in CD4 positive Treg (CD4+/Foxp3+/CD25^high) versus Tconv (CD4+/Foxp3−/CD25^low) cells, two variants, P-0511 and P-0512, were further assayed for their ability to stimulate other effector T and NK cells, including CD4 positive Teff (CD4+/Foxp3-/CD25+), CD8 cytotoxic T effector and NK cells in comparison to wild-type IL-2 (P-0250) and three IL-2 benchmark molecules containing V91K, N88R, N88D respectively.
After human PBMC Cells were treated with serial dilutions of test compounds, fixed and permeabilized, washed, and stained with a mixture of anti-CD25-PE, anti-FOXP3-APC, anti-pSTAT5-FITC, and anti-CD4-PerCP-Cy5.5 antibodies, the flow cytometry analysis was gated into CD4+/Foxp3+/CD25+, CD4+/Foxp3−/CD25+, CD4+/Foxp3−/CD25− groups for the Treg, CD4 effector, and CD4 naive T cell subsets, respectively. Data are expressed as a percent of pStat5 positive cells in gated population and illustrated in FIG. 9.

Treg cells [6] = experiment: Treg pharmacodynamics in mice after repeated administration Q3D (Example 11); assay type: in vivo, mouse; settings: 0.3 mg/kg s.c.
Procedure: Female Balb/C mice (7-week old) were acclimated in house for 5-7 days before the study. Vehicle (PBS), 0.3 mg/kg of P-0511, P-0512, P-0531, or Benchmark-1 compound were subcutaneously administered to mice (n=5/group) on days 0, 3, and 6. On days 3 and 9, three days after the first injection and multiple (3) injections, respectively, peripheral blood was collected. Based on earlier in vivo experiments, Treg cell activation, proliferation, and expansion were expected to peak on day 3, and thus three days post injection was selected for data collection and analysis. Changes in blood lymphocyte activation, proliferation, and expansion were measured by flow cytometry. P-0531 is the S125I equivalent of the wild type IL-2 fusion protein. The Benchmark-1 contains V91K mutation.

Treg cells [7] = experiment: Treg proliferation and expansion in mice after a single subcutaneous injection (Example 9); assay type: in vivo, mouse; settings: 0.3 mg/kg single s.c., C57/BL6 mice
Procedure: as §2, §3

NK cells [8] = experiment: NK cell proliferation, CFSE dilution, human PBMC; assay type: cell-based; settings: 5 or 7 days incubation
Procedure: as §4

[9] = tested on: CD4+ Treg vs CD4+ Tconv cells; experiment: STAT5 phosphorylation, selectivity / activity profile Treg versus CD4+ Tconv cells, human PBMC; assay type: cell-based
Procedure, shortened: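 Fresh human PBMC from a healthy donor, serum-starved 1 h at 4 °C, then exposed to serial dilutions of IL-2 variants for 30 min at 37 °C. After fixation/permeabilization, cells stained for CD4, CD25, FOXP3 and pSTAT5 and analysed by flow cytometry. Treg (CD4+/Foxp3+/CD25high) and Tconv (CD4+/Foxp3−/CD25low) gated; read-out is percent pSTAT5-positive cells.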

[10] = tested on: CD4+ Tconv, activated CD4+ T, CD8+ T and NK cells; experiment: Effector T cell and NK cell proliferation and expansion in mice, bifunctional constructs (Example 17); assay type: in vivo, mouse; settings: 15 nmol/kg single s.c.
Procedure: as §2, with “IL-2 variant tocilizumab bifunctional proteins P-0536, P-0546, P-0559, and P-0560 along with IL-2” for “IL-2”, “protein P-0511” for “proteins”, “mice,” for “mice”
(§5) Female C57/BL6 mice (7-week old) were received from Charles River Laboratory and acclimated in house for at least 7 days before the study. Vehicle (PBS) and 15 nmol/kg each test compounds were subcutaneously administered to mice on day 0. Peripheral blood samples were collected into heparin-treated tubes on days 2, 4 and 8 post-treatment. Each group contained 5 mice and baseline blood was collected 3 days prior to the treatment (day −3).

Treg cells [11] = experiment: Treg proliferation and expansion in mice after a single s.c. injection of bifunctional constructs (Example 17); assay type: in vivo, mouse; settings: 15 nmol/kg single s.c.; for potency in inducing Treg cell proliferation and expansion in vivo (in words): C57/BL6 mice
Procedure: as §2, with “IL-2 variant tocilizumab bifunctional proteins P-0536, P-0546, P-0559, and P-0560 along with IL-2” for “IL-2”, “protein P-0511” for “proteins”, “mice,” for “mice”
as §5

P-0573: IL-2 R38A/P65G/S125I Fc fusion, SEQ ID NO: 247
induction of Ki67 expression in CD8+ T cells (CD8+ T cells [1]): equally effective | induction of Ki67 expression in CD4+ T cells (CD4+ T cells): substantially reduced potency; also recorded: higher potency than Benchmark-4 | induction of Ki67 expression in NK cells (NK cells [2]): equally effective

P-0512: IL-2 L19H/S125I/Q126K Fc fusion, SEQ ID NO: 214
Ki67 stimulation on CD8 T cells and NK cells in vivo (in words) [3]: mild Ki67 stimulation | expansion of CD4+ Tconv cells, CD8 T cells or NK cells in vivo [3]: No significant expansion | potency in stimulating CD8+ T cell proliferation (in words) (CD8+ T cells [4]): comparable activity profile to Benchmark-1 | pSTAT5 activity profile in Treg, Teff and naive CD4 T cell subsets (in words) [5]: comparable activity profile to Benchmark-1 | % Treg over total CD4 T cells or over total lymphocytes (Treg cells [6]; after three consecutive Q3D treatments): sustained at significantly high levels | Treg cell counts, fold changes relative to PBS and Treg/Tconv ratio (Treg cells [6]; repeated dosing Q3D): superior capabilities to sustain Treg pool and maintain Treg selectivity | Treg/Tconv ratio (Ki67 stimulation and cell counts) (Treg cells [7]; all measured time points): most beneficial Treg/Tconv ratio | stimulation of Treg cell proliferation and expansion in vivo (in words) (Treg cells [7]; days 3, 5, 7): stronger in vivo efficacy | potency in stimulating NK cell proliferation (in words) (NK cells [8]): comparable activity profile to Benchmark-1 | Treg Selectivity ([9]; Isoleucine-125 constructs): Yes

Benchmark-4: benchmark Fc-IL-2 fusion with IL-2Rα-disrupting triple mutations F42A/Y45A/L72G, SEQ ID NO: 250 [reference compound]
induction of Ki67 expression in CD8+ T cells (CD8+ T cells [1]): equally effective | induction of Ki67 expression in NK cells (NK cells [2]): equally effective

P-0560: Tocilizumab IL-2 D20Q/S125I monovalent fusion, SEQ ID NOs 253 + 254 + 266
change of the activated CD4+ T cells [10]: slight increase | Treg/Tconv ratio (Ki67 stimulation, cell counts) (Treg cells [11]): most beneficial Treg/Tconv ratio | expression of CD25 and Foxp3 on Treg cells (Treg cells [11]): highest expression of CD25 | potency in inducing Treg cell proliferation and expansion in vivo (in words) (Treg cells [11]): highest potency | activity profile / selectivity window Treg over CD4+ Tconv (in words) [9]: selective activation of Treg cells over CD4+ Tconv cells

P-0546: Tocilizumab IL-2 L19H/S125I/Q126E monovalent fusion, SEQ ID NOs 253 + 254 + 256
change of the activated CD4+ T cells [10]: slight increase | Treg/Tconv ratio (Ki67 stimulation, cell counts) (Treg cells [11]): most beneficial Treg/Tconv ratio | expression of CD25 and Foxp3 on Treg cells (Treg cells [11]): highest expression of CD25 | potency in inducing Treg cell proliferation and expansion in vivo (in words) (Treg cells [11]): highest potency

Source: patent US20220170028A1, “NOVEL INTERLEUKIN-2 VARIANTS AND BIFUNCTIONAL FUSION MOLECULES THEREOF” (Cugene Inc, priority 2019, published 2022)
